The text below walks through data of patent US20120251495A1, “PTERIN BASED THERAPIES FOR INFLAMMATORY CONDITIONS” (priority 2008, published 2012).

Series [1] deals with plasma cytokines. Description: Plasma cytokine levels by ELISA (LINCOplex), 1st experiment. The series is classed as in vivo, athymic nude (nu/nu) mice. Conditions: for IL-10: limit of detection 24.6. How it is done:
Cytokine levels in EDTA plasma from the mice in the 1st experiment were determined by ELISA assay at Alta Analytical Laboratories (San Diego, Calif.) using a LINCOplex Kit (Linco Research). Tryptophan (Trp) and kynurenine (Kyn) concentrations were measured from EDTA plasma samples by high pressure liquid chromatography (HPLC) using 3-nitro-L-tyrosine as the internal standard (Widner et al., 1997). To estimate IDO activity, the kynurenine to tryptophan ratio (Kyn/Trp) was calculated and expressed as μmol kynurenine/mmol tryptophan (Wirleitner, 2003). The values from five mice in the 1st experiment are not included in the summary statistics given in Table 1 for the following reasons. One mouse from each of the four treatment groups was used to test the effects of mega dosing, i.e., with (1:4 mol:mol) calcium pterin at 100 mg/kg/day after Day 60 of treatment, and are excluded. Also excluded was one mouse from the (1:4 mol:mol) calcium pterin (7 mg/kg/day) group which expired suddenly a few days before blood was collected. Cytokine measurements <3.2 pg/ml are reported as n.d. (not detectable) because the standard curves used in the ELISA assays were not calibrated below that level.
Cytokine levels in EDTA plasma from the mice in the 1st experiment were determined by ELISA assay at Alta Analytical Laboratories (San Diego, Calif.) using a LINCOplex Kit (Linco Research).
Cytokine levels in EDTA plasma from the mice in the 2nd experiment were measured at the UCSD Core Laboratory (San Diego, Calif.) using a multiplex assay kit for IL-1β, IL-2, IL-4, IL-5, IL-10, IL-12, IFN-γ, TNF-α and single ELISA kits for IL-6 and TGF-β1 by R&D Systems. EDTA plasma samples from two of the three ungavaged controls were lost due to handling error. For both the 1st and 2nd experiments, those measured cytokine values falling below the limits of detection were set to the higher assay limit for the purposes of the subsequent statistical analyses, and recorded as n.d. (not detectable) in Tables 1 through 3.

A short description of series [2]: Toxicity by body weight changes in nude mice. The series is classed as in vivo, athymic nude mice. How it is done: The aims of the 1st experiment were to determine a dose-response curve for the (1:4 mol:mol) calcium pterin suspension, to compare the antitumor activity of this suspension to pterin alone (pterin control), and to test the effect of CaPterin mega-dosing at 100 mg/kg/day. Antitumor efficacy was evaluated in nude mice with MDA-MB-231 human tumor xenographs by Perry Scientific (San Diego, Calif.). In the 1st experiment, twenty-three athymic nude (nu/nu) female mice, ages 3-4 weeks, were purchased from Harlan Sprague Dawley, Inc. (Indianapolis, Ind.). 5×10^6 MDA-MB-231 cancer cells were injected subcutaneously into the right flank of each mouse. When tumors reached 3-5 mm in size, twenty mice were divided into four treatment/control groups of five mice each. The four treatment groups were: (1:4 mol:mol) calcium pterin (7 mg/kg/day); pterin (21 mg/kg/day); (1:4 mol:mol) calcium pterin (21 mg/kg/day); and sterile water control. […]
The control mice in the 1st experiment were treated with sterile water while the control mice in the 2nd experiment were untreated to evaluate the effect of mouse handling and gavaging upon tumor growth. […] Tumors were measured twice weekly with calipers and body weights taken twice weekly on the day of tumor measurements. […]

The nature of series [3]: Theoretical body fluid level calculated from dose. Conditions: 69 mg/kg ÷ 0.7 L/kg ÷ 454.4 mg/mmol; mouse. On the procedure:
DCP at the highest dose tested in mice in this study, 69 mg/kg, yields the following theoretical body fluid level: [DCP]fluid=69 mg/kg÷0.7 L/kg÷454.4 mg/mmol=220 μM.

The subject of series [4] is hepatitis B virus (HBV). Description: Liver HBV DNA by quantitative PCR in HBV transgenic mice. The series is classed as in vivo. Conditions: female HBV mice; 23.0 mg/(kg day), per os 14 days.
For series [5], the system named is serum cytokines/chemokines. Kind of series: Serum cytokine/chemokine array in HBV transgenic mice. The series is classed as in vivo. How it is done: Experimental design. DCP was administered per os, once daily for 14 days to randomly assigned HBV transgenic mice at 23, 7.3, and 2.3 mg/(kg d). ADV was used as a positive control at 10 mg/(kg d) using the same treatment schedule and vehicle (0.4% CMC). On day 14, mice were euthanized to collect serum and liver samples to perform liver HBV DNA, liver core and serum HBe assays, serum cytokine/chemokine profiles, and IDO metabolite assays.
Liver or serum cytokine/chemokine array. Liver samples were prepared for the Q-Plex™ mouse cytokine/chemokine array (Quansys Biosciences, Logan, Utah) as described previously (Morrey J D, Molter N E, Taro B, Lay M & Fairman J. Efficacy of cationic lipid-DNA complexes (CLDC) on hepatitis B virus in transgenic mice. Antiviral Res 2008; 79:71-79).

Setting [6] is: Table 4, 7 mg/kg/d, limit of detection 3.2.
Setting [7] is: Table 4, 21 mg/kg/d, limit of detection 3.2.

For (1:4 mol:mol) calcium pterin [CaPterin], the IL10 in series [1] (Table 1, 7 mg/kg/day, plasma) was determined as 41.9 ± 22.7 pg/mL; in series [1] (Table 1, 21 mg/kg/day, plasma), 50.8 ± 32.3 pg/mL. The IL-6 was found to be 114.7 ± 43.2 pg/mL in series [1] (Table 1, 7 mg/kg/day, plasma); 121.7 ± 78.1 pg/mL in series [1] (Table 1, 21 mg/kg/day, plasma); 114.7 ± 43.2 pg/mL in series [1] (Table 4, 7 mg/kg/d, plasma at sacrifice, limit of detection 3.9); 121.7 ± 78.1 pg/mL in series [1] (Table 4, 21 mg/kg/d, plasma at sacrifice, limit of detection 3.9). Moreover, the IL-12 in series [1] (Table 1, 7 mg/kg/day, plasma) is 7.7 ± 4.4 pg/mL; in series [1] (Table 1, 21 mg/kg/day, plasma), 243.8 ± 237.8 pg/mL; in series [1] (setting [6]), 7.7 ± 4.4 pg/mL; in series [1] (setting [7]), 243.8 ± 237.8 pg/mL. Further, the TNF-α in series [1] (Table 1, 7 mg/kg/day, plasma) amounted to 9.8 ± 1.5 pg/mL; in series [1] (Table 1, 21 mg/kg/day, plasma), 8.5 ± 1.6 pg/mL; in series [1] (setting [6]) it was 9.8 ± 1.5 pg/mL; in series [1] (setting [7]) it was 8.5 ± 1.6 pg/mL. For the same molecule, the IL-1b amounted to 5.2 ± 2.0 pg/mL in series [1] (Table 1, 7 mg/kg/day, plasma at sacrifice, n.d. = <3.2 pg/ml) and 3.4 ± 0.2 pg/mL in series [1] (Table 1, 21 mg/kg/day, plasma at sacrifice, n.d. = <3.2 pg/ml). The IFN-γ in series [1] (Table 1, 7 mg/kg/day, plasma, n.d. = <3.2 pg/ml) is 4.7 ± 0.6 pg/mL; in series [1] (setting [6]), 4.7 ± .8 pg/mL. The molecule further yielded an IL-1β in series [1] (Table 4, 7 mg/kg/d, limit of detection 4.1) of 5.8 ± 1.7 pg/mL. Also, the IL-10 in series [1] (Table 4, 7 mg/kg/d) is 49.0 ± 17.0 pg/mL; in series [1] (Table 4, 21 mg/kg/d), 61.5 ± 27.3 pg/mL. For the same molecule, the “plasma IFN-γ response to dosage (ACIP model)” value in series [1] (stepwise regression) was “decrease”. Besides, the “plasma IL-6 response to dosage (ACIP model)” value in series [1] (stepwise regression) is “decrease”. Also, in series [1] (stepwise regression), the “plasma IL-10 response to dosage (ACIP model)” value is “increase”. Further, the “toxicity (appreciable weight loss)” value in series [2] (mega-dosed 100 mg/kg/day oral gavage for up to 31 days) is given as “no observed toxicity”. In addition, in series [2] (mega-dosed group 100 mg/kg/day, one mouse, after 32 days), the “greatest weight loss (body weight)” value came out at 8.1%.

For the molecule `Nc1nc([O-])c2nccnc2n1.Nc1nc([O-])c2nccnc2n1.[Ca+2]` [DCP, dipterinyl calcium pentahydrate], in series [3], the “theoretical body fluid level [DCP]fluid” value was 220 µM. In series [4], the “Log HBV DNA (PCR) versus controls” value is “significant treatment decreases”. In series [5] (male HBV mice, 2.3 mg/(kg day)), the “serum chemokine RANTES versus controls” value is reported as “significant decrease”. Besides, in series [5] (serum, female, 7.3 mg/(kg d)), the “IL-4, Female levels (mean ± SEM)” value worked out at 241 ± 53 rel. pg/ml; the “IL-9, Female levels (mean ± SEM)” value is 185 ± 28 rel. pg/ml; the “IL-12, Female levels (mean ± SEM)” value worked out at 642 ± 11 rel. pg/ml. Besides, in series [5] (serum, male, 7.3 mg/(kg d)), the “IL-4, Male levels (mean ± SEM)” value was determined as 87 ± 28 rel. pg/ml; the “IL-9, Male levels (mean ± SEM)” value turned out to be 112 ± 13 rel. pg/ml; the “IL-12, Male levels (mean ± SEM)” value came out at 575 ± 17 rel. pg/ml.
